Legend:
human epidermis = details: Placzek M et al. 2005; cited from earlier work
HaCaT keratinocytes = details: Shibata A et al. 2010; cited from earlier work
[1] = system: Human dermal fibroblasts (HDFs); assay: MTT viability of dermal fibroblasts under UVB irradiation; type: cell-based
Description: (§1) Human dermal fibroblasts (HDFs) and immortalized keratinocyte cell line (HaCaT) were cultured using DMEM (low, high glucose, Hyclone, Thermo Scientific, Logan, Utah, USA) supplemented with 10% FBS (Gibco, Invitrogen, Carlsbad, Calif., USA), 1% penicillin, and streptomycin (Gibco) at 37° C. with 5% CO2 in a humidified atmosphere (Kim W S et al., (2009) Journal of dermatological science 53: 96-102). Said cultures were performed by exchanging with fresh media every two days.
(§2) HDFs (3×10^4 cells/well) and HaCaT (4×10^4 cells/well) were seeded in 6-well plates. Cells were treated with various concentrations of MVE. Cells were then incubated for 48 hours and the MTT assay was performed. MTT solution (5 mg/ml in phosphate buffered saline) was added to each well at 1/20 of the media volume, incubated for 2 hours, and then supernatant was removed. Dimethyl sulfoxide (DMSO) was then added to dissolve formazan crystals, and the absorbance was measured at 595 nm using an ELISA reader (TECAN, Grodig, Austria).

fibroblasts [2] = assay: Cellular ROS generation assay (DCF-DA) in fibroblasts; type: cell-based, Human; details: UVB, MVE 1000 nM, p<0.01, FIG. 3a
Description: (§3) Cellular ROS generation was measured using 2′,7′-dichlorodihydrofluorescein diacetate (DCF-DA, Molecular Probes, Eugene, Oreg., USA), as described previously (Hye Kim J et al., Stem cells 33: 542-556). Similarly, mitochondrial ROS (mtROS) generation was measured using Mito-Sox (Molecular Probes). Cells were seeded in 6-well plates in 0.2% FBS and cultured overnight. […] Each well was imaged every 10 minutes for 40 minutes under standard incubation conditions using an IncuCyte™ ZOOM microscope placed inside an incubator. Image-based analysis of fluorescence intensity was carried out using IncuCyte™ software (Essen Bioscience, MI, USA).

collagen = assay: Western blot of collagen protein in fibroblasts; type: cell-based, Human; details: FIG. 2C
Description: (§4) Cells (2×10^5 cells/ml) were seeded in a 60 mm dish and cultured to 80% confluence. Cells were treated with MVE. Cells were then lysed with 1×RIPA buffer (50 mM Tris-HCl, 0.15 M NaCl, 1 mM EDTA, 1% Triton-X100, pH 7.4, 1% SDS, 50 mM NaF, 1 mM Na3VO4, 5 mM Dithiothreitol, 1 mg/ml Leupeptin, and 1 mM phenylmethylsulfonyl fluoride). Sample protein (40 μg) was separated in 10-12% SDS-polyacrylamide gels by electrophoresis. Proteins were transferred to PVDF membranes and incubated with antibodies to collagen (1:1000 rabbit source, Santa Cruz Biotechnology, Santa Cruz, Calif., USA) and matrix metalloproteinase 1 (MMP1, 1:1000 rabbit source, Santa Cruz Biotechnology). Membranes were then washed and incubated with horseradish peroxidase-conjugated anti-rabbit IgG antibody (Santa Cruz Biotechnology). Blots were reacted with western reagent (ECL; Millipore Billerica, Ann Arbor, Mass., USA) and exposed to X-ray film.

HaCaT cells [3] = assay: MTT proliferation assay in HaCaT cells; type: cell-based, Human; details: dose-dependent; p<0.05; FIG. 4A
Description: as §1, §2

p53 = p53 protein levels in HaCaT cells after UVB; type: cell-based, Human; details: FIG. 4C
fibroblasts [4] = assay: Mitochondrial ROS generation assay (Mito-Sox) in fibroblasts; type: cell-based, Human; details: UVB, MVE 1000 nM, p<0.01, FIG. 3b
Description: as §3

[5] = system: matrix metalloproteinase 1 (MMP1); assay: Western blot of MMP1 protein in fibroblasts; type: cell-based, Human; details: FIG. 2C
Description: as §4

[6] = system: Human dermal fibroblasts (HDFs); assay: MTT proliferation assay in dermal fibroblasts; type: cell-based; details: 100~1000 nM; p<0.01; FIG. 1B
Description: as §1, §2

HaCaT cells [7] = assay: Mitochondrial ROS generation assay (Mito-Sox) in HaCaT cells; type: cell-based, Human; details: UVB, MVE 1000 nM, p<0.01, FIG. 5b
Description: as §3

HaCaT cells [8] = assay: Cellular ROS generation assay (DCF-DA) in HaCaT cells; type: cell-based, Human; details: UVB, MVE 1000 nM, p<0.01, FIG. 5a
Description: as §3

[9] = system: matrix metalloproteinase 1 (MMP1); assay: RT-PCR of MMP1 mRNA in dermal fibroblasts; type: cell-based, Human
Description: (§5) Total RNA of HDFs and HaCaT was extracted with Trizol reagent followed by reverse transcription to cDNA. The following oligonucleotides were used as primers: collagen type I [5′-[…]-3′ (SEQ ID NO: 1) and 5′-[…]-3′ (SEQ ID NO: 2)], MMP-1 [5′-[…]-3′ (SEQ ID NO: 3) and 5′-[…]-3′ (SEQ ID NO: 4)], and control GAPDH [5′-[…]-3′ (SEQ ID NO: 5) and 5′-[…]-3′ (SEQ ID NO: 6)]. PCR was carried out in a total volume of 30 μl for PCR amplification of cDNA that was reverse-transcribed from the total RNA. After initial denaturation at 95° C. for 5 minutes, amplification was performed in 35 cycles for 30 seconds at 95° C., 20 seconds at 54° C., and 30 seconds at 72° C. This was followed by a final extension at 72° C. for another 10 minutes. GAPDH mRNA level was used for sample standardization.

HaCaT cells [10] = assay: MTT viability of HaCaT cells under UVB; type: cell-based, Human; details: p<0.01, FIG. 4B
Description: as §1, §2

collagen type I = assay: RT-PCR of collagen mRNA in dermal fibroblasts; type: cell-based, Human
Description: as §5

[11] = dermal fibroblasts, no UVB, FIG. 2A

## Cc1c(C)c2c(c(C)c1O)CC[C@@](C)(CCC[C@H](C)CCC[C@H](C)CCCC(C)C)O2 [D-alpha-tocopherol]
Human epidermis
  UVB-induced DNA damage: prevented

## CC(C)=CCC/C(C)=C/CC/C(C)=C/CC[C@]1(C)CCc2cc(O)c(C)c(C)c2O1 [γ-tocotrienol]
HaCaT keratinocytes
  protection from UVB induced inflammation: protected

## vitamin E [reference compound]
[1]; UVB 200 mJ, 0.1 to 100 μM, FIG. 1A
  survival of dermal fibroblasts from UVB irradiation: slightly increased

## Cc1c(C)c2c(c(C)c1O)CCC(C)(CC[P+](c1ccccc1)(c1ccccc1)c1ccccc1)O2.[Br-] (centres unmarked) [MVE]
Fibroblasts [2]
  cytosolic ROS level: fluorescent signal intensity of DCF-DA: attenuated
collagen
  protein level of collagen: altered
HaCaT cells [3]
  proliferation of HaCaT cells: significantly increased
p53
  UVB-induced p53 protein levels: reduced
[1]; 10~1000 nM, p<0.01, FIG. 1C
  protection of fibroblasts from UVB: protected
[1]; UVB 200 mJ, 0.1 and 1 μM, concentration-dependent, FIG. 1A
  fibroblast survival (UVB irradiation), low concentrations: increased
[1]; UVB 200 mJ, 10 to 100 μM, concentration-dependent, FIG. 1A
  fibroblast survival (UVB irradiation), high concentrations: decreased
Fibroblasts [4]
  mitochondria ROS production: signal intensity of mito-Sox: reduced
[5]
  protein level of MMP1: altered
[6]
  fibroblast proliferation: increased
HaCaT cells [7]
  mitochondrial ROS production: signal intensity of mito-Sox: reduced
HaCaT cells [8]
  cytosolic ROS level: fluorescent signal intensity of DCF-DA: attenuated
[9]; [11]
  MMP1 mRNA expression: down-regulated
[9]; fibroblasts with UVB, FIG. 2B
  mRNA level of MMP1 increased by UVB: reduced
HaCaT cells [10]
  UVB-reduced cell viability: increased
Collagen type I; [11]
  collagen mRNA expression: increased
Collagen type I; fibroblasts with UVB, FIG. 2B
  mRNA level of collagen reduced by UVB irradiation: attenuated

From patent US10300004B2, “Cosmetic composition for preventing or ameliorating skin damage caused by ultraviolet light” (CUSKIN CO., LTD, priority 2015, dated 2019)
